Target: T1, mouse ZnT-1 (Mus musculus, UniProt Q60738)
T1 construct: host or cells: HEK293
T1 sequence (Q60738 1-503): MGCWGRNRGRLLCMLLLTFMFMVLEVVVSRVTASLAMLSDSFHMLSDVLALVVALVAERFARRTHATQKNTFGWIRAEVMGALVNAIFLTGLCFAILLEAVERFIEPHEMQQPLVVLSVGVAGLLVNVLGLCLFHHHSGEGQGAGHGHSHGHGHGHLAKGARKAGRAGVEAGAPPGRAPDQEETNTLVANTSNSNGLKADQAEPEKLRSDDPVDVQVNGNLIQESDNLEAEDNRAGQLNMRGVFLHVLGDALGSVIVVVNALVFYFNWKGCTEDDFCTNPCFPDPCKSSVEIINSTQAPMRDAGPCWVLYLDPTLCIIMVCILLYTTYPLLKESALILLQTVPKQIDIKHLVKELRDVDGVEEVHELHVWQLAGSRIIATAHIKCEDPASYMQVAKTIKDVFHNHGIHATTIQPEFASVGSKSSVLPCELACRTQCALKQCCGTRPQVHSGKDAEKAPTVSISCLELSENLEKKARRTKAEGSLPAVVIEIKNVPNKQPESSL
Experiment: Zinc efflux assay (FluoZin-3) in ZnT1-transfected HEK293 cells
Assay type: cell-based
Conditions: ZnT1-expressing HEK293 cells, 3 μM overnight, N2AZ versus scN2AZ
Procedure: HEK293 cells were grown in Dulbecco's modified Eagle's medium (DMEM) containing: 100 units/ml penicillin, 0.1 mg/ml streptomycin, 2 mm glutamine, and 10% (v/v) fetal calf serum in a 5% CO2 humidified atmosphere at 37° C. To express ZnT1, HEK 293 cells were transfected with ZnT1 or empty plasmid (control) using CaPO4 precipitation. Briefly,1 μg mouse ZnT-1 (pCMV6:ZnT1 Gen Bank Q60738) or empty vector plasmid (pCMV6, Origene) was incubated with 2 M calcium chloride in HEPES buffered solution containing […] to generate a co-precipitate, this solution was then dispersed onto cultured cells for 6 hours. Twenty four hours later, cells were treated with the scN2AZ or N2AZ (3 μM ) overnight. […] Rates of initial decrease of the fluorescent signal following exposure to Zn^2+ were determined during a 100 second period. […] Fluorescence imaging measurements were acquired using Axon Imaging Workbench 5.2 (INDEC BioSystems) and analyzed using Excel and Prism GraphPad.
Next, it was examined whether N2AZ could modify ZnT1-dependent zinc transport. Following an intracellular zinc load, decreases in intracellular zinc levels were measured over time as a readout of zinc transport in HEK293 cells previously transfected with a plasmid encoding for ZnT1 or an empty vector. FluoZin-3 fluorescence was utilized to quantify intracellular zinc levels (Qin et al., 2009; Shusterman et al., 2014). […]

NDSYLRSSL [Peptide N2AZ]
rate of zinc efflux: not different
